Assay results reported in patent US20250161309A1, “TOPICAL COMPOSITIONS AND USES THEROF” (TOPADUR PHARMA AG, priority 2022, published 2025).

How the values were obtained:
[1] = system: C57BL/6 mouse model of alopecia; test: Topical administration and hair growth in C57BL/6 mouse model of alopecia (telogen phase, clipped dorsal skin); assay type: in vivo; settings: female mice
From the text: Dorsal hair of C57BL/6 mouse is known to have a time synchronized hair cycle. From about 18-21 days of age (2-3 weeks old) and 47-95 days of age (6-14 weeks old), the dorsal hair are in the telogen/quiescent phase (visually pink skin) [Lee B H, Lee J S, Kim Y C. Hair growth-promoting effects of lavender oil in C57BL/6 mice. Toxicol Res. (2016) 32(2):103-108; Choi H I, Kang B M, Jang J, Hwang S T, Kwon O. Novel effect of sildenafil on hair growth. Biochem Biophys Res Commun. (2018) 505(3):685-691]. C57BL/6 mouse therefore is a well-established model for studying hair growth promotion.
Male and female C57BL/6 mice of 6 to 9 weeks of age in stable telogen phase of hair growth cycle were used (obtained from Vivo Bio Tech Ltd, Telangana, India).
50 μL of a clear solution of respective 0.02%, 0.002% and 0.0002% (w/v) concentrations of Cpd 1 in the corresponding vehicle (PEG-400:EtOH/7:3) (PEG-400: Central Drug House Ltd. Dehli, India; Ethanol: Changshu Hongsheng fine chemicals Co. Ltd. China) and the positive control, 2% solution (female) or 5% (male) (w/v) Minoxidil (Chemieliva, China) in the corresponding vehicle (PEG-400:EtOH/7:3) were topically applied to the clipped area on the dorsal back of the mice. The solutions covered a circular area of approximately 2 cm^2. The treatment regimen was twice daily application for 5 days/week for total of 4 weeks.
The selected animals on day 1 weighted on average 20.05 g±0.17 ranging from 19.8 to 20.2 g. The hair on the dorsal back (approx. 4×4 cm^2) of these animals were clipped without touching the skin of the animal, using an electric clipper, on day 0 before the treatment with Cpd 1 and the hair was collected. The treatment followed by visual analysis for anagen onset, skin color change and appearance of any hair growth were monitored. After completion of the experiment, the dorsal skin of all the animals was removed and visual melanogenesis was reported. The skin sections were then preserved in 10% formalin solution for further histopathology analysis.
Animals were observed during 30 days and the hair growth score was recorded on daily basis. The criteria for scoring of hair growth is as follows: no hair growth, pink skin—score 0; skin colour changes from pink to grey/light grey without visible hair growth—score 0.5 onset of anagen (skin colour changes from grey/light grey to dark grey/black without visible hair growth)—score 1; sparse hair growth—score 1.5; diffuse short hair growth—score 2, moderate hair growth—score 2.5 and dense, normal coat hair—score 3 (Lee B H, Lee J S, Kim Y C. Hair growth-promoting effects of lavender oil in C57BL/6 mice. Toxicol Res. (2016) 32(2):103-108).
Photographs of the animals were captured before the initiation and during the course of the study.
(§1) After completion of the experiments all animals were sacrificed by euthanasia (Choi H I, Kang B M, Jang J, Hwang S T, Kwon O. Novel effect of sildenafil on hair growth. Biochem Biophys Res Commun. (2018) 505(3):685-691). The dorsal skin of each animal was then removed by peeling. The peeled skin was spread and checked visually for the induction of melanogenesis indicated by visual blackening on the reverse side of the skin. The skin samples were evenly spread on a pre-labelled glass slide and kept in 10% formalin until further use. Later, the skin samples were embedded in paraffin and sectioned at 5 microns using a microtome and the corresponding slides per animal were prepared. The slides obtained were used for Haematoxylin & Eosin (H&E) staining and in the transverse and longitudinal sections' photomicrographs data, the total number of follicles in the dermis and the sub cutis were determined for each animal. The skin thickness was measured using Image J 1.44 software.
The statistical analyses were performed using GraphPad Prism 9.0.0 software. Statistical significance was determined by One-way or Two-Way ANOVA followed by Tukey's multiple comparison test. […]

[2] = system: C57BL/6 mouse model for chemotherapy-induced alopecia (CIA); test: Preventive C57BL/6 mouse model of cyclophosphamide (chemotherapy)-induced alopecia (CIA), topical administration; assay type: in vivo; settings: female mice, 2% Minoxidil
Protocol: Female C57BL/6 mice (Vivo Bio Tech Ltd, Telangana, India) of 6 to 9 weeks of age in stable telogen phase of hair growth cycle were used.
100 μL of a clear solution of respective 0.0004%, 0.002% (w/v) concentrations of Cpd 1 in the corresponding vehicle (PEG-400:EtOH/7:3) (PEG-400: Central Drug House Ltd. Dehli, India; Ethanol: Changshu Hongsheng fine chemicals Co. Ltd. China) and the positive control, 2% solution (w/v) Minoxidil (Chemieliva, China) in the corresponding vehicle (PEG-400:EtOH/7:3) were topically applied to the depilated area on the dorsal back of female mice. The solutions covered a circular area of approximately 4 cm^2. The treatment regimen was twice daily for 7 days before Cyclophosphamide injection and afterwards for 3 weeks.
Animals (female) on day 1 weighted on average 18.8 g+0.2 ranging from 18.5 to 19.3 g. The animals were exposed by gentle clipping of hair from the dorsal back using an electric clipper. The following day, animals with clear skin were depilated using a depilatory cream. To evaluate the preventive potential of Cpd 1 in the chemotherapy-induced alopecia mouse model, animals were treated topically with 0.0004% and 0.002% Cpd 1, 2% Minoxidil and vehicle from day 1 onwards on the dorsal depilated skin with twice daily application regimen until day 10, when all the animals have attained the anagen stage. On day 11 after depilation, no application of the Cpd 1 or vehicle was done. This was considered a wash-out period. On day 12 after depilation, the animals were given intraperitoneal injection of cyclophosphamide (CYP-HiMedia Laboratories, Mumbai, India) at the dose of 150 mg/kg body weight. One day of wash-out period was given to the animals before restarting the treatment with Cpd 1. The treatment regimen was reinitiated with 0.0004% and 0.002% Cpd 1, 2% Minoxidil and vehicle in the respective groups for further 3 weeks. All the animals were observed from day 1 (experiment start) till day 30 (experiment termination and animal sacrifice day) and the hair growth score was recorded on a daily basis. The criteria for scoring of hair growth is as follows: no hair growth, pink skin—score 0; skin colour changes from pink to grey/light grey without visible hair growth—score 0.5; onset of anagen (skin colour changes from grey/light grey to dark grey/black without visible hair growth)—score 1; sparse hair growth—score 1.5; diffuse short hair growth—score 2, moderate hair growth—score 2.5 and dense, normal coat hair—score 3 (Lee B H, Lee J S, Kim Y C. Hair growth-promoting effects of lavender oil in C57BL/6 mice. Toxicol Res. (2016) 32(2):103-108). Photographs of the animals were captured before the initiation and during the course of the study. […]
as §1, with “software. […]” for “software.”

SMILES: Nc1cc(N2CCCCC2)nc(N)[n+]1[O-] [Minoxidil, 2,4-diamino-6-piperidinopyrimidine-3-oxide, reference compound]
- visual melanogenesis in peeled skin ([1]; positive control 2% (w/v) Minoxidil, end of study): No visual melanogenesis
- animals with complete hair growth (hair growth score of 3) [2]: 3/7
- animals with moderate hair growth (hair growth score of 2-2.5) [2]: 4/7
- attainment of hair growth compared to vehicle [2]: faster attainment
- depth and development of dermal papilla and long hair shaft of hair follicles observed (longitudinal skin sections) [2]: majority of the animals
- thickness of the skin compared to vehicle group [2]: slightly increase
- mice with visual melanogenesis in peeled skin ([2]; end of study): 7/7
- Ki-67 score (positive cells near the follicular region, semi-quantitative grading) ([2]; vehicle 0.4): 1.1
- CD-31 mean score (perifollicular angiogenesis, semi-quantitative grading) ([2]; vehicle group 0.8): 1.4

SMILES: CCCOc1ccc(S(=O)(=O)N2CCN(CCO[N+](=O)[O-])CC2)cc1-c1nc2c(CCC)cn(CC)c2c(=O)[nH]1 [Cpd 2, 2-(4-((3-(5-ethyl-4-oxo-7-propyl-4,5-dihydro-3H-pyrrolo[3,2-d]pyrimidin-2-yl)-4-propoxyphenyl)sulfonyl)piperazin-1-yl)ethyl nitrate]
- number of follicles in the subcutis layer of the skin and total follicle counts compared to control group [1]: considerable higher number
- animals with visual melanogenesis in peeled skin ([1]; 0.002% (w/v), end of study): 1/5
- skin thickness compared to vehicle and 2% Minoxidil groups ([1]; 0.02% (w/v)): increased
- animals with visual melanogenesis in peeled skin ([1]; 0.02% (w/v), end of study): 1/5
- anagen hair follicles (histology, H&E) compared to control groups ([1]; Cpd 2-treated groups): more
- area of black skin compared to control groups ([1]; at day 30): larger
- adverse effects in relation to general health or body weight ([1]; topical twice daily, 5 days/week, 4 weeks, compared to vehicle group): No adverse effects
- day of skin colour change from pink to light grey (transition from telogen to anagen phase) ([1]; treated group 2 (Table 2: 0.002% (w/v)), after hair growth induction): 10 day
- hair growth score among treatment groups ([1]; treated group 2 (Table 2: 0.002% (w/v)), at day 30, followed by low dose groups and Minoxidil group): maximal
- hair growth (score) compared to 2% Minoxidil ([1]; treated group 2 (Table 2: 0.002% (w/v)), at days 25, 29 and 30): significant increase
- hair growth (score) compared to vehicle ([1]; treated group 2 (Table 2: 0.002% (w/v), Composition A5), from day 23 on): significantly higher
- hair growth compared to vehicle group ([1]; treated group 3 (Table 2: 0.02% (w/v), Composition A6), at day 29 and 30): significantly higher
